# Results: US9522888B2, “Substituted bicyclic compounds” (BRISTOL-MYERS SQUIBB COMPANY, priority 2014, dated 2016)
# How the values were obtained:
# [1] = target: human S1P1 (Homo sapiens (Human), UniProt P21453); experiment: S1P1 binding assay (33P-S1P radioligand competition, CHO cell membranes); details: phosphate examples; read-out: S1P1 Binding
# Method in brief: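 Radioligand is 33P-S1P, competing for membranes from human S1P1-expressing CHO cells. Membranes resuspended in 50 mM HEPES pH 7.5, 100 mM NaCl, 1 mM MgCl2, 2 mM EDTA.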
# [2] = target: S1P1 (membranes prepared from S1P1/CHO cells) (Homo sapiens (Human), UniProt P21453); experiment: Receptor [35S] GTPγS binding assay (S1P1 GTPγS); assay type: biochemical; details: phosphate examples; read-out: S1P1 GTPγS
# Method in brief: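 Agonist-stimulated [35S]GTPγS binding (0.2 nM final) to S1P1/CHO membranes, 3 μg protein/well, measured after 45 min at room temperature. Buffer contained 10 μM GDP, saponin and fatty-acid-free BSA at pH 7.5. Compounds tested as 11-point 3-fold series; bound label captured on filters, scintillation-counted, EC50 reported.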
# [3] = target: S1P3 (membranes prepared from EDG3-Gal5-bla HEK293T cells) (Homo sapiens (Human), UniProt Q99500); experiment: Receptor [35S] GTPγS binding assay (S1P3 GTPγS); assay type: biochemical; details: phosphate examples; read-out: S1P3 GTPγS
# Method in brief: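 Membranes (3 μg protein/well) from S1P1/CHO cells or EDG3-Gal5-bla HEK293T cells (S1P3) were incubated 45 min at room temperature with 0.2 nM final [35S]GTPγS in HEPES pH 7.5 buffer with 10 μM GDP, MgCl2 and saponin. Bound label counted after filtration; EC50 from 11-point, 3-fold dilutions.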
# [4] = target: hS1P1/CHO cells (Homo sapiens (Human), UniProt P21453); experiment: hS1P1 ERK phosphorylation (S1P1 pERK); assay type: cell-based; details: phosphate examples
# Method in brief: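 Agonism read as ERK phosphorylation (SureFire pERK) in hS1P1/CHO lysates, normalised to the maximal effect of 10 μM S1P. Cells were held 2 h in serum-free medium, then treated with compound for 7 min at 37° C. in HBSS/20 mM HEPES.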
# Sequence of S1P3 (membranes prepared from EDG3-Gal5-bla HEK293T cells) (Q99500 whole entry): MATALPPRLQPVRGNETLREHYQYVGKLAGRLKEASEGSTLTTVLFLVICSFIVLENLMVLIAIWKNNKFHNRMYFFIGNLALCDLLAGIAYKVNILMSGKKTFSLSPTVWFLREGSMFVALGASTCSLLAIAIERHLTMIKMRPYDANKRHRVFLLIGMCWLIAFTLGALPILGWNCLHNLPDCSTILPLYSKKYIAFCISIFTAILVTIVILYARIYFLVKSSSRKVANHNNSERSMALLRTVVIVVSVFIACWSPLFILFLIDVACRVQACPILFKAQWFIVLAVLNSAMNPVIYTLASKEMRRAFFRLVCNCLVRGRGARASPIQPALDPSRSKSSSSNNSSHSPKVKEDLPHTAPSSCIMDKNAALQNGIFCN
# Sequence of S1P1 (membranes prepared from S1P1/CHO cells) (P21453 whole entry): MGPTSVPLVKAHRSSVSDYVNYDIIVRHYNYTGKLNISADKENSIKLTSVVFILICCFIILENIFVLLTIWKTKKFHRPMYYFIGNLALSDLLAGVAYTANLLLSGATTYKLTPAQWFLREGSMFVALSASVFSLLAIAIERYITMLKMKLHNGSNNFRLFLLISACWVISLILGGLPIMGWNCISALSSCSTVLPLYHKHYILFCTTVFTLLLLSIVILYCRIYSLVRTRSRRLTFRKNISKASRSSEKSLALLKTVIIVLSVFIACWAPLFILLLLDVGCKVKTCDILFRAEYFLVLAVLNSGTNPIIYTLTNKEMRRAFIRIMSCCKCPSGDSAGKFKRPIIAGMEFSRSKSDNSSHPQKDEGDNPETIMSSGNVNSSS
# Sequence of hS1P1/CHO cells (P21453 whole entry): as above
# Sequence of human S1P1 (P21453 whole entry): as above
IC50 [1],EC50 [2],EC50 [3],EC50 [4],SMILES
< 10 nM,10 to 100 nM,> 625 nM,10 to 100 nM,CCOc1ccc(C[C@H]2CCc3cc([C@H]4CC[C@](N)(COP(=O)(O)O)C4)ccc3C2)cc1 [compound 547]
< 10 nM,10 to 100 nM,> 625 nM,< 10 nM,CCOCC[C@@H]1CCc2cc([C@H]3CC[C@](N)(COP(=O)(O)O)C3)ccc2C1 [compound 541]
< 10 nM,10 to 100 nM,> 625 nM,< 10 nM,N[C@]1(COP(=O)(O)O)CC[C@H](c2ccc3c(c2)CC[C@H](c2ccccc2)C3)C1 [compound 569]
< 10 nM,< 10 nM,> 625 nM,10 to 100 nM,CCCCCCCCCCOC[C@H]1CCc2cc([C@H]3CC[C@](N)(COP(=O)(O)O)C3)ccc2C1 [compound 450]
< 10 nM,10 to 100 nM,> 625 nM,< 10 nM,COCCC[C@H]1CCc2cc([C@@H]3CC[C@@](N)(COP(=O)(O)O)C3)ccc2C1 [compound 595]
10 to 100 nM,10 to 100 nM,> 625 nM,10 to 100 nM,COc1ccc(OC[C@@H]2CCc3cc([C@H]4CC[C@](N)(COP(=O)(O)O)C4)ccc3C2)c(F)c1F [compound 494]
< 10 nM,10 to 100 nM,> 625 nM,10 to 100 nM,N[C@]1(COP(=O)(O)O)CC[C@H](c2ccc3c(c2)CC[C@@H](CSCCc2ccccc2)C3)C1 [compound 522]
< 10 nM,10 to 100 nM,> 625 nM,< 10 nM,CCC/C=C\CO[C@@H]1CCc2cc([C@H]3CC[C@](N)(COP(=O)(O)O)C3)ccc2C1 [compound 438]
10 to 100 nM,10 to 100 nM,> 625 nM,< 10 nM,CCCCCCNC(=O)OC1CCc2cc([C@H]3CC[C@@](N)(COP(=O)(O)O)C3)ccc2C1 (some centres unmarked) [compound 626]
10 to 100 nM,100 to 1000 nM,> 625 nM,10 to 100 nM,COc1cc(OC[C@@H]2CCc3cc([C@H]4CC[C@](N)(COP(=O)(O)O)C4)ccc3C2)ccc1C(C)(C)C [compound 498]
10 to 100 nM,< 10 nM,> 625 nM,< 10 nM,CCCCCC[C@H]1Cc2ccc([C@H]3CC[C@](N)(COP(=O)(O)O)C3)cc2CO1 [compound 426]
< 10 nM,< 10 nM,> 625 nM,< 10 nM,CC/C=C\COC[C@@H]1CCc2cc([C@H]3CC[C@](N)(COP(=O)(O)O)C3)ccc2C1 [compound 455]
< 10 nM,< 10 nM,> 625 nM,< 10 nM,CCSCC[C@@H]1CCc2cc([C@H]3CC[C@](N)(COP(=O)(O)O)C3)ccc2C1 [compound 533]
10 to 100 nM,10 to 100 nM,> 625 nM,< 10 nM,"N[C@@]1(COP(=O)(O)O)CC[C@@H](c2ccc3c(c2)CC[C@H](CCc2cccnc2)C3)C1 (single isomer, unassigned) [compound 606]"
< 10 nM,< 10 nM,> 625 nM,< 10 nM,CC(C)=CCCOC[C@@H]1CCc2cc([C@H]3CC[C@](N)(COP(=O)(O)O)C3)ccc2C1 [compound 461]
100 to 1000 nM,10 to 100 nM,> 625 nM,< 10 nM,Cc1cccc(OC[C@@H]2CCc3cc([C@H]4CC[C@](N)(COP(=O)(O)O)C4)ccc3C2)c1 [compound 470]
< 10 nM,< 10 nM,> 625 nM,< 10 nM,CC(C)CSCC[C@H]1CCc2cc([C@H]3CC[C@](N)(COP(=O)(O)O)C3)ccc2C1 [compound 539]
< 10 nM,< 10 nM,> 625 nM,< 10 nM,CCCSCC[C@@H]1CCc2cc([C@H]3CC[C@](N)(COP(=O)(O)O)C3)ccc2C1 [compound 535]
100 to 1000 nM,10 to 100 nM,> 625 nM,10 to 100 nM,CC(C)CC/C=C/[C@@H]1CCc2cc([C@H]3CC[C@](N)(COP(=O)(O)O)C3)ccc2C1 [compound 645]
10 to 100 nM,< 10 nM,> 625 nM,< 10 nM,N[C@]1(COP(=O)(O)O)CC[C@H](c2ccc3c(c2)CC[C@@H](CSCCc2ccccn2)C3)C1 [compound 524]
100 to 1000 nM,10 to 100 nM,> 625 nM,10 to 100 nM,COc1ccc(COC[C@@H]2CCc3cc([C@H]4CC[C@](N)(COP(=O)(O)O)C4)ccc3C2)cc1 [compound 482]

IC50 [1],EC50 [2],EC50 [3],EC50 [4],SMILES
< 10 nM,10 to 100 nM,> 625 nM,< 10 nM,CCCCC[C@H]1CCc2cc([C@@H]3CC[C@@](N)(COP(=O)(O)O)C3)ccc2C1 [compound 578]
10 to 100 nM,10 to 100 nM,> 625 nM,10 to 100 nM,C=CCC/C=C/[C@@H]1CCc2cc([C@H]3CC[C@](N)(COP(=O)(O)O)C3)ccc2C1 [compound 639]
< 10 nM,100 to 1000 nM,> 625 nM,10 to 100 nM,CN(C)Cc1cccc(OC[C@@H]2CCc3cc([C@H]4CC[C@](N)(COP(=O)(O)O)C4)ccc3C2)c1 [compound 490]
10 to 100 nM,10 to 100 nM,> 625 nM,< 10 nM,CCCCCO[C@@H]1CCc2cc([C@H]3CC[C@](N)(COP(=O)(O)O)C3)ccc2C1 [compound 430]
< 10 nM,< 10 nM,> 625 nM,< 10 nM,C=CCCOC[C@@H]1CCc2cc([C@H]3CC[C@](N)(COP(=O)(O)O)C3)ccc2C1 [compound 452]
10 to 100 nM,< 10 nM,> 625 nM,10 to 100 nM,C/C=C\CCC[C@H]1CCc2cc([C@H]3CC[C@](N)(COP(=O)(O)O)C3)ccc2C1 [compound 657]
10 to 100 nM,10 to 100 nM,> 625 nM,10 to 100 nM,CCCC/C=C/[C@@H]1CCc2cc([C@H]3CC[C@](N)(COP(=O)(O)O)C3)ccc2C1 [compound 636]
10 to 100 nM,10 to 100 nM,> 625 nM,< 10 nM,CCCCCC[C@H]1COc2cc([C@H]3CC[C@](N)(COP(=O)(O)O)C3)ccc2C1 [compound 424]
10 to 100 nM,10 to 100 nM,> 625 nM,10 to 100 nM,N[C@]1(COP(=O)(O)O)CC[C@H](c2ccc3c(c2)CC[C@H](COCc2ccccc2)C3)C1 [compound 445]
< 10 nM,< 10 nM,> 625 nM,< 10 nM,"COCCCCC[C@@H]1CCc2cc(C3CCC(N)(COP(=O)(O)O)C3)ccc2C1 (single isomer, unassigned) [compound 599]"
< 10 nM,< 10 nM,> 625 nM,< 10 nM,CC(C)(C)CCSC[C@H]1CCc2cc([C@H]3CC[C@](N)(COP(=O)(O)O)C3)ccc2C1 [compound 518]
100 to 1000 nM,100 to 1000 nM,> 625 nM,10 to 100 nM,CCCCCC[C@@H]1COc2cc([C@@H]3CC[C@](N)(COP(=O)(O)O)C3)ccc2C1 [compound 423]
10 to 100 nM,100 to 1000 nM,> 625 nM,10 to 100 nM,Cc1cccc(C)c1SC[C@@H]1CCc2cc([C@H]3CC[C@](N)(COP(=O)(O)O)C3)ccc2C1 [compound 523]
< 10 nM,10 to 100 nM,> 100 nM,< 10 nM,COCCC/C=C/[C@H]1CCc2cc([C@H]3CC[C@](N)(COP(=O)(O)O)C3)ccc2C1 [compound 638]
< 10 nM,< 10 nM,> 625 nM,10 to 100 nM,CCCC[S+]([O-])C[C@@H]1CCc2cc([C@H]3CC[C@](N)(COP(=O)(O)O)C3)ccc2C1 (some centres unmarked) [compound 668]
< 10 nM,< 10 nM,> 625 nM,< 10 nM,CCCSC[C@H]1CCc2cc([C@H]3CC[C@](N)(COP(=O)(O)O)C3)ccc2C1 [compound 532]
< 10 nM,10 to 100 nM,> 625 nM,10 to 100 nM,CC(C)(C)CSC[C@H]1CCc2cc([C@H]3CC[C@](N)(COP(=O)(O)O)C3)ccc2C1 [compound 514]
10 to 100 nM,10 to 100 nM,> 625 nM,10 to 100 nM,COc1ccc(OC[C@@H]2CCc3cc([C@H]4CC[C@](N)(COP(=O)(O)O)C4)ccc3C2)cc1 [compound 476]
10 to 100 nM,< 10 nM,> 625 nM,< 10 nM,CC(C)Oc1cccc(C[C@@H]2CCc3cc([C@H]4CC[C@](N)(COP(=O)(O)O)C4)ccc3C2)c1 [compound 560]
< 10 nM,< 10 nM,> 100 nM,10 to 100 nM,CCCCCCCOC1CCc2cc([C@H]3CC[C@](N)(COP(=O)(O)O)C3)ccc2C1 (some centres unmarked) [compound 432]
